Test results as given in ChEMBL document CHEMBL1144577, “1,5-Biaryl pyrrole derivatives as EP1 receptor antagonists. Structure-activity relationships of 6-substituted and 5,6-disubstituted benzoic acid derivatives” (Bioorg Med Chem Lett, 2007).

How the values were obtained:
[1] = Blood clearance in rat; type: ADME, organism-based
[2] = system: Rattus norvegicus; experiment: Reversal of hypersensitivity in po dosed FCA rat model of inflammatory pain; type: functional
[3] = Volume of distribution at steady state in rat; type: ADME, organism-based; settings: in vivo, read-out: Vss
[4] = system: Rattus norvegicus; experiment: Normalized AUC (0 to t) in rat at 3 mg/kg, po; type: ADME, organism-based; parameters: dose 3 mg/kg, route oral; settings: in vivo
[5] = Tmax in rat at 3 mg/kg, po; type: ADME, organism-based; parameters: dose 3 mg/kg, route oral; settings: in vivo
[6] = target: T1, Prostaglandin E2 receptor EP1 subtype (Homo sapiens, UniProt P34995); experiment: Displacement of [3H]PGE2 from human recombinant EP1 receptor expressed in CHOK1 cell membrane; type: cell membranes, CHO-K1
T1 sequence (P34995 whole entry): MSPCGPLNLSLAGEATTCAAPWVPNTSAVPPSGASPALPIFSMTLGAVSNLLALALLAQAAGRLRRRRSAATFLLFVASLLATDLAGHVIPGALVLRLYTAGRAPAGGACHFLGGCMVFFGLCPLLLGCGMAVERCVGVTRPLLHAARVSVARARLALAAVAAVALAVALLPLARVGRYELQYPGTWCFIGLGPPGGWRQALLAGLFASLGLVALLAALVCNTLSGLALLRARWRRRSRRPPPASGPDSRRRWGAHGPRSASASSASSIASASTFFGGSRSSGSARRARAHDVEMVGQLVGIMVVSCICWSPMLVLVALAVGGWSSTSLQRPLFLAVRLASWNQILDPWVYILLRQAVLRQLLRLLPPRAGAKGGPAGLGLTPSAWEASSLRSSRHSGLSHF

[7] = Cmax in rat at 3 mg/kg, po; type: ADME, organism-based; parameters: dose 3 mg/kg, route oral; settings: in vivo
[8] = system: Rattus norvegicus; experiment: Reversal of hypersensitivity in FCA rat model of inflammatory pain at 5 mg/kg, po; type: functional

Row | AUC/dose [4] [kg·min/L] | Tmax [5] [min] | IC50 [6] [nM] | Cmax [7] [nM] | SMILES | other results
1 | – | – | – | – | Cc1ccc(-c2cc(Br)ccc2OCc2ccc(F)cc2)n1-c1cccc(C(=O)O)c1 | clearance [1]: 42 mL/min/kg; ED50 [2]: 9.2 mg/kg; Vd [3]: 0.7 L/kg
2 | 4 | 30 | 0.398 | 340 | COc1ccc(-n2c(C)ccc2-c2cc(Br)ccc2OCc2ccc(F)cc2F)cc1C(=O)O | –
3 | 31 | 30 | 3.98 | 910 | Cc1c(N)cc(-n2c(C)ccc2-c2cc(C(F)(F)F)ccc2OCc2ccccc2)cc1C(=O)O | Activity [8]: 40%
4 | 52 | 66 | 0.794 | 1350 | Cc1c(N)cc(-n2c(C)ccc2-c2cc(Br)ccc2OCc2ccc(F)cc2)cc1C(=O)O | Activity [8]: 50%
5 | – | – | 2 | – | Cc1ccc(-c2cc(Br)ccc2OCc2ccc(F)cc2)n1-c1ccc(OC(F)F)c(C(=O)O)c1 | –
6 | – | – | 3.98 | – | Cc1c(N)cc(-n2c(C)ccc2-c2cc(C(F)(F)F)ccc2OCc2ccc(F)cc2)cc1C(=O)O | –
7 | 9 | 240 | 6.31 | 220 | Cc1ccc(-c2cc(Cl)ccc2OCc2ccccc2)n1-c1cc(C(=O)O)c2ccccc2c1 | –
8 | 9 | 30 | 5.01 | 520 | Cc1ccc(-c2cc(Br)ccc2OCc2ccc(F)cc2)n1-c1cc(C(=O)O)c2ccccc2c1 | –
9 | – | – | 1.26 | – | Cc1ccc(-c2cc(Cl)ccc2OCc2ccccc2)n1-c1cc(C(=O)O)c2cc[nH]c2c1 | –
10 | – | – | 1.26 | – | Cc1ccc(-c2cc(Br)ccc2OCc2ccc(F)cc2)n1-c1ccc(F)c(C(=O)O)c1 | –
11 | 27 | 36 | 2 | 870 | Cc1ccc(-c2cc(C(F)(F)F)ccc2OCc2ccccc2)n1-c1ccc(F)c(C(=O)O)c1 | Activity [8]: 56%
12 | – | – | 15.8 | – | Cc1ccc(OCc2ccc(F)cc2)c(-c2ccc(C)n2-c2ccc(F)c(C(=O)O)c2)c1 | –
13 | – | – | 12.6 | – | Cc1ccc(-c2cc(F)ccc2OCc2ccc(F)cc2)n1-c1ccc(F)c(C(=O)O)c1 | –
14 | – | – | 2.51 | – | Cc1ccc(-c2cc(Br)ccc2OCc2ccc(F)cc2)n1-c1ccc(Cl)c(C(=O)O)c1 | –
